Calls of active or inactive are those of the source. Cut-off read from the data, not from the text of the source, for most assays here: actives have a measured Kd and inactives only a lower limit.
Each compound was assayed against Serine/threonine-protein kinase 16 (Homo sapiens, UniProt O75716).
Note: in the data inactive means no Kd found up to 30 µM.

Serine/threonine-protein kinase 16, sequence (O75716 whole entry): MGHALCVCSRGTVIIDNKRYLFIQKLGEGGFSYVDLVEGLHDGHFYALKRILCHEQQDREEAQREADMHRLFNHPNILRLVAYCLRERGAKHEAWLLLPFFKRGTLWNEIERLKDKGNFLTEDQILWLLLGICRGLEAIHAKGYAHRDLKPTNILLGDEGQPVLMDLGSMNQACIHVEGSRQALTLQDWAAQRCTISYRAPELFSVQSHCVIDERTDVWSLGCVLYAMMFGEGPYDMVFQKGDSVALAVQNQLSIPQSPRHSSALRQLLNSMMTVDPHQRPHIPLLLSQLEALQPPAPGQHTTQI

| Structure (SMILES) | Kd |
| --- | --- |
| CNS(=O)(=O)Nc1nccc(Cc2c(C)c3ccc(Oc4ncccn4)cc3oc2=O)c1F [AVUTOMETINIB] | > 30 µM (inactive) |
| Cc1cc([C@@H](C)Nc2ccccc2C(=O)O)c2nc(N3CCOCC3)cc(=O)n2c1 [AZD-6482] | > 30 µM (inactive) |
| COc1ccc(-c2ccc3c(N4CCOC[C@@H]4C)nc(N4CCOC[C@@H]4C)nc3n2)cc1CO [AZD-8055] | > 30 µM (inactive) |

These compounds were tested against Tyrosine-protein kinase Yes (Homo sapiens, UniProt P07947).
Tyrosine-protein kinase Yes, sequence (P07947 whole entry): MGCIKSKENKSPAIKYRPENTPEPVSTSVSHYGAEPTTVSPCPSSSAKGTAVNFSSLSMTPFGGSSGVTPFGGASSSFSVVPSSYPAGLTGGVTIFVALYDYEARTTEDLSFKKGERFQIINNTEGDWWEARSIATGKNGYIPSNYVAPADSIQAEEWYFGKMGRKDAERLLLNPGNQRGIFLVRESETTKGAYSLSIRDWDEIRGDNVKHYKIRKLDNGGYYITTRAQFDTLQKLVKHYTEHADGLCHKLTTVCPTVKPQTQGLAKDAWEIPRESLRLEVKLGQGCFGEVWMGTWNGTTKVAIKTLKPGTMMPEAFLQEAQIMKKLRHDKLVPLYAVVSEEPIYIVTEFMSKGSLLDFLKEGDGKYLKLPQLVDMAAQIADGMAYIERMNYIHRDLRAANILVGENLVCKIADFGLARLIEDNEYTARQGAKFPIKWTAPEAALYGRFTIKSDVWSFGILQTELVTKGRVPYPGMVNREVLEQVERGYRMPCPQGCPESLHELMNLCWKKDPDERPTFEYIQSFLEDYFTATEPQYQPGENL

| Structure (SMILES) | Kd |
| --- | --- |
| CNS(=O)(=O)Nc1nccc(Cc2c(C)c3ccc(Oc4ncccn4)cc3oc2=O)c1F [AVUTOMETINIB] | > 30 µM (inactive) |
| Cc1cc([C@@H](C)Nc2ccccc2C(=O)O)c2nc(N3CCOCC3)cc(=O)n2c1 [AZD-6482] | > 30 µM (inactive) |
| COc1ccc(-c2ccc3c(N4CCOC[C@@H]4C)nc(N4CCOC[C@@H]4C)nc3n2)cc1CO [AZD-8055] | > 30 µM (inactive) |

These compounds were tested against T1, Ferrochelatase, mitochondrial (Homo sapiens, UniProt P22830).
T1 sequence (P22830 whole entry): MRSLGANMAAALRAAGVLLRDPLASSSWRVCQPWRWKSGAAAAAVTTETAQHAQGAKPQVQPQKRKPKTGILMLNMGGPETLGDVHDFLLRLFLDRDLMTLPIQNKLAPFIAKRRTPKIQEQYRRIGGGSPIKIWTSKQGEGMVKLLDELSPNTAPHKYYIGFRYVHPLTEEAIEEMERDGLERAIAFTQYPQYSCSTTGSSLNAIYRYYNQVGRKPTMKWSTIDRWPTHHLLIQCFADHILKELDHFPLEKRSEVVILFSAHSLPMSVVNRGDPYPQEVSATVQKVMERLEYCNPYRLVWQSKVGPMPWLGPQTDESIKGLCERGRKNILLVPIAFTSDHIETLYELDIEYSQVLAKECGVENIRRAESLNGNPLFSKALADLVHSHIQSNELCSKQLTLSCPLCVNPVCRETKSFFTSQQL

| Structure (SMILES) | Kd |
| --- | --- |
| CNS(=O)(=O)Nc1nccc(Cc2c(C)c3ccc(Oc4ncccn4)cc3oc2=O)c1F [AVUTOMETINIB] | > 30 µM (inactive) |
| Cc1cc([C@@H](C)Nc2ccccc2C(=O)O)c2nc(N3CCOCC3)cc(=O)n2c1 [AZD-6482] | > 30 µM (inactive) |
| COc1ccc(-c2ccc3c(N4CCOC[C@@H]4C)nc(N4CCOC[C@@H]4C)nc3n2)cc1CO [AZD-8055] | 6.9 µM (active) |

These compounds were tested against Proto-oncogene tyrosine-protein kinase Src (Homo sapiens, UniProt P12931).
Proto-oncogene tyrosine-protein kinase Src, sequence (P12931 2-536 limits assumed): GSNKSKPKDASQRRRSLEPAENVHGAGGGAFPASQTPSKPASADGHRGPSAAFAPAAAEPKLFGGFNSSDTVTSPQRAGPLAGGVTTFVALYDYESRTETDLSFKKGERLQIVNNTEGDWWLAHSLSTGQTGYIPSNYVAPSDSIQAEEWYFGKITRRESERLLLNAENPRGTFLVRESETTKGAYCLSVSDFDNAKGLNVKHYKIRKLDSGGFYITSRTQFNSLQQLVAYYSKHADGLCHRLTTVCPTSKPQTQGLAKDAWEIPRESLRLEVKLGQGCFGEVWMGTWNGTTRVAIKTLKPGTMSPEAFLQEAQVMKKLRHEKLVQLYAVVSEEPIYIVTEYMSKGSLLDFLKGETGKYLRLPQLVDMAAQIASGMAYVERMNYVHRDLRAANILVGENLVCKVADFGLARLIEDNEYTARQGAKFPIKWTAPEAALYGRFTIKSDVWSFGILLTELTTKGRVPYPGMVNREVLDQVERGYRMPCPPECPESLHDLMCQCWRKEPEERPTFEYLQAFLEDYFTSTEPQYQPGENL

| Structure (SMILES) | Kd |
| --- | --- |
| CNS(=O)(=O)Nc1nccc(Cc2c(C)c3ccc(Oc4ncccn4)cc3oc2=O)c1F [AVUTOMETINIB] | > 30 µM (inactive) |
| Cc1cc([C@@H](C)Nc2ccccc2C(=O)O)c2nc(N3CCOCC3)cc(=O)n2c1 [AZD-6482] | > 30 µM (inactive) |
| COc1ccc(-c2ccc3c(N4CCOC[C@@H]4C)nc(N4CCOC[C@@H]4C)nc3n2)cc1CO [AZD-8055] | > 30 µM (inactive) |

These compounds were tested against T2, Ras-related protein Rab-27A (Homo sapiens, UniProt P51159).
T2 sequence (P51159 whole entry): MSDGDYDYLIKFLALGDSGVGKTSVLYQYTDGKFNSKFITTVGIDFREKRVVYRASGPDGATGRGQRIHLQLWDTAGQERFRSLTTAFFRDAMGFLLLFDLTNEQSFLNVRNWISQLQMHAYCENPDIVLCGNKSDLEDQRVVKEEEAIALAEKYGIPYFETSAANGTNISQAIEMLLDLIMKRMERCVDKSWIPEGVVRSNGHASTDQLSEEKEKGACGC

| Structure (SMILES) | Kd |
| --- | --- |
| CNS(=O)(=O)Nc1nccc(Cc2c(C)c3ccc(Oc4ncccn4)cc3oc2=O)c1F [AVUTOMETINIB] | > 30 µM (inactive) |
| Cc1cc([C@@H](C)Nc2ccccc2C(=O)O)c2nc(N3CCOCC3)cc(=O)n2c1 [AZD-6482] | > 30 µM (inactive) |
| COc1ccc(-c2ccc3c(N4CCOC[C@@H]4C)nc(N4CCOC[C@@H]4C)nc3n2)cc1CO [AZD-8055] | > 30 µM (inactive) |

Each compound was assayed against T3, DNA replication licensing factor MCM4 (Homo sapiens, UniProt P33991).
T3 sequence (P33991 whole entry): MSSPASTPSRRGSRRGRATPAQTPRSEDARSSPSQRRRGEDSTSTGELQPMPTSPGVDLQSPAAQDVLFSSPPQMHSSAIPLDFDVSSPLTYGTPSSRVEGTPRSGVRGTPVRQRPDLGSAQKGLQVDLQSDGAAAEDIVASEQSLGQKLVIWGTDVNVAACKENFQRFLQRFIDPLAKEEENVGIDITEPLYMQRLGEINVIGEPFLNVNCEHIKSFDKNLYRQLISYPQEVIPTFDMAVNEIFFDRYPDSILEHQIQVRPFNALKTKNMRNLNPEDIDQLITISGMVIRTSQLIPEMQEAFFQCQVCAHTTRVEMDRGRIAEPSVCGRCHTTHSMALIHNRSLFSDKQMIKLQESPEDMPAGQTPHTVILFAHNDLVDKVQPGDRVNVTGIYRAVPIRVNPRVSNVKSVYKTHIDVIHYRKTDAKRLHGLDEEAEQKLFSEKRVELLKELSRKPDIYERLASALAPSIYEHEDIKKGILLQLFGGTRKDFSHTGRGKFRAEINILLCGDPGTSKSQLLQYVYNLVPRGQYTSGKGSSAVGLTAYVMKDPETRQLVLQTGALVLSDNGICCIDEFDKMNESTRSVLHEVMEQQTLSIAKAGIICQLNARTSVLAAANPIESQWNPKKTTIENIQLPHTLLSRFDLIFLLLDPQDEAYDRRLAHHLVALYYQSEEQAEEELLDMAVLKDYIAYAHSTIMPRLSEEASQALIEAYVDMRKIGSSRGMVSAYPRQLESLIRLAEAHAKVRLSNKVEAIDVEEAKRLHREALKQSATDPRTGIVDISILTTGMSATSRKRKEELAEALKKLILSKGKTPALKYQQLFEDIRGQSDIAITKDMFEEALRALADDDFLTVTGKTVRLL

| Structure (SMILES) | Kd |
| --- | --- |
| CNS(=O)(=O)Nc1nccc(Cc2c(C)c3ccc(Oc4ncccn4)cc3oc2=O)c1F [AVUTOMETINIB] | > 30 µM (inactive) |
| Cc1cc([C@@H](C)Nc2ccccc2C(=O)O)c2nc(N3CCOCC3)cc(=O)n2c1 [AZD-6482] | > 30 µM (inactive) |
| COc1ccc(-c2ccc3c(N4CCOC[C@@H]4C)nc(N4CCOC[C@@H]4C)nc3n2)cc1CO [AZD-8055] | > 30 µM (inactive) |

What follows are compounds tested against Protein-tyrosine kinase 6 (Homo sapiens, UniProt Q13882).
Protein-tyrosine kinase 6, sequence (Q13882 whole entry): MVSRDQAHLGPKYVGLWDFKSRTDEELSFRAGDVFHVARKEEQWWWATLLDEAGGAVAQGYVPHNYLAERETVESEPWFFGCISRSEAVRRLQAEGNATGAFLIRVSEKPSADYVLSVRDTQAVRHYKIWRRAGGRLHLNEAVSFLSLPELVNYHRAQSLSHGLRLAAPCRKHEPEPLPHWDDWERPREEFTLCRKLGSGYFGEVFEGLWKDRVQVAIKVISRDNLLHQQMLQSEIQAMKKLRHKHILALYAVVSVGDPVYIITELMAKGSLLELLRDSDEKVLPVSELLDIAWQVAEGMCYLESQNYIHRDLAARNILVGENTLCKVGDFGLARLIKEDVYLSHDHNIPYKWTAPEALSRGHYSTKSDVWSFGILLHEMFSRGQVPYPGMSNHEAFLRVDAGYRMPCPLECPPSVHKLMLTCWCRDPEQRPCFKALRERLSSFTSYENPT

| Structure (SMILES) | Kd |
| --- | --- |
| CNS(=O)(=O)Nc1nccc(Cc2c(C)c3ccc(Oc4ncccn4)cc3oc2=O)c1F [AVUTOMETINIB] | > 30 µM (inactive) |
| Cc1cc([C@@H](C)Nc2ccccc2C(=O)O)c2nc(N3CCOCC3)cc(=O)n2c1 [AZD-6482] | > 30 µM (inactive) |
| COc1ccc(-c2ccc3c(N4CCOC[C@@H]4C)nc(N4CCOC[C@@H]4C)nc3n2)cc1CO [AZD-8055] | > 30 µM (inactive) |

These compounds were tested against Mitotic checkpoint serine/threonine-protein kinase BUB1 (Homo sapiens, UniProt O43683).
Mitotic checkpoint serine/threonine-protein kinase BUB1, sequence (O43683 whole entry): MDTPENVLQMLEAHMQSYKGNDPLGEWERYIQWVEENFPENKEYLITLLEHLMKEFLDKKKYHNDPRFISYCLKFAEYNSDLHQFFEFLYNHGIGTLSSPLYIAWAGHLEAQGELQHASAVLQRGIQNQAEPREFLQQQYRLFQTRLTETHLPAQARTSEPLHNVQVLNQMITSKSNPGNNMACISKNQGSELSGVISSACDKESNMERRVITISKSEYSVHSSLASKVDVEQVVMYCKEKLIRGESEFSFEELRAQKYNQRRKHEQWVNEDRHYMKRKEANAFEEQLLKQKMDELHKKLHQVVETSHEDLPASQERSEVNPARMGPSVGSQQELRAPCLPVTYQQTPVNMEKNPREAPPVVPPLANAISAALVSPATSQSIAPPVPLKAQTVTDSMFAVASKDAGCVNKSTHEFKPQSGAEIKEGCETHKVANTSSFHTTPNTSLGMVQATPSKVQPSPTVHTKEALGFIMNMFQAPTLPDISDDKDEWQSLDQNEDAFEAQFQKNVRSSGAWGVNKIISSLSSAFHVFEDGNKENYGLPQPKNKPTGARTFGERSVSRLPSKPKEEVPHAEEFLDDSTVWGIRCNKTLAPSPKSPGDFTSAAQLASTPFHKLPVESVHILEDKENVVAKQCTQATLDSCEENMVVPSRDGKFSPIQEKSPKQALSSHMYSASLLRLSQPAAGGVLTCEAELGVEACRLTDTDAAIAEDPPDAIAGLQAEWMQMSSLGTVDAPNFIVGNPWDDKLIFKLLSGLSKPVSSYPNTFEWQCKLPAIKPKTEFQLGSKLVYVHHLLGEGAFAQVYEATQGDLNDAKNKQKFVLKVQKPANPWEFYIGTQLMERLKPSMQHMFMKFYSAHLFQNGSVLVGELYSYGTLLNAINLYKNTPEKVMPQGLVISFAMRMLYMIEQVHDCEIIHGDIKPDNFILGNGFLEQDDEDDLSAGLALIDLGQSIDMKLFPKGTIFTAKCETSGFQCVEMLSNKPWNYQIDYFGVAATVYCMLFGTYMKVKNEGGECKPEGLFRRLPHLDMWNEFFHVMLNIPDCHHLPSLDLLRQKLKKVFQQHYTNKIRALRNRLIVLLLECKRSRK

| Structure (SMILES) | Kd |
| --- | --- |
| CNS(=O)(=O)Nc1nccc(Cc2c(C)c3ccc(Oc4ncccn4)cc3oc2=O)c1F [AVUTOMETINIB] | > 30 µM (inactive) |
| Cc1cc([C@@H](C)Nc2ccccc2C(=O)O)c2nc(N3CCOCC3)cc(=O)n2c1 [AZD-6482] | > 30 µM (inactive) |
| COc1ccc(-c2ccc3c(N4CCOC[C@@H]4C)nc(N4CCOC[C@@H]4C)nc3n2)cc1CO [AZD-8055] | > 30 µM (inactive) |

The compounds below were run against T4, ADP/ATP translocase 3 (Homo sapiens, UniProt P12236).
T4 sequence (P12236 whole entry): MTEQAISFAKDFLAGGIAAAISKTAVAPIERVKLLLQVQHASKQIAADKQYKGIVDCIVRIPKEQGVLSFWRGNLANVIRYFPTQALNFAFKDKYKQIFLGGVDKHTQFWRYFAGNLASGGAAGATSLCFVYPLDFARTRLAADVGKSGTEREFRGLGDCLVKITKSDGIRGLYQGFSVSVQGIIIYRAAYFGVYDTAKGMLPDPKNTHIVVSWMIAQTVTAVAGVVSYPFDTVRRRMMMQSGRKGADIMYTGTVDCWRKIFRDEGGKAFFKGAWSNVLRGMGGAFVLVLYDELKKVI

| Structure (SMILES) | Kd |
| --- | --- |
| CNS(=O)(=O)Nc1nccc(Cc2c(C)c3ccc(Oc4ncccn4)cc3oc2=O)c1F [AVUTOMETINIB] | > 30 µM (inactive) |
| Cc1cc([C@@H](C)Nc2ccccc2C(=O)O)c2nc(N3CCOCC3)cc(=O)n2c1 [AZD-6482] | > 30 µM (inactive) |
| COc1ccc(-c2ccc3c(N4CCOC[C@@H]4C)nc(N4CCOC[C@@H]4C)nc3n2)cc1CO [AZD-8055] | > 30 µM (inactive) |

Each compound was assayed against Ras-related protein Rab-6A (Homo sapiens, UniProt P20340).
Ras-related protein Rab-6A, sequence (P20340 whole entry): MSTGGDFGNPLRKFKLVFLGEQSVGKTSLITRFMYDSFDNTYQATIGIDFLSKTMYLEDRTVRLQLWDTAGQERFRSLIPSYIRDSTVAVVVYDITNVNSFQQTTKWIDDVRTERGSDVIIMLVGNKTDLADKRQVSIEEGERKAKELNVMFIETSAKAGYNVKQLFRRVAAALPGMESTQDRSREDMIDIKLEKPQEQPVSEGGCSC

| Structure (SMILES) | Kd |
| --- | --- |
| CNS(=O)(=O)Nc1nccc(Cc2c(C)c3ccc(Oc4ncccn4)cc3oc2=O)c1F [AVUTOMETINIB] | > 30 µM (inactive) |
| Cc1cc([C@@H](C)Nc2ccccc2C(=O)O)c2nc(N3CCOCC3)cc(=O)n2c1 [AZD-6482] | > 30 µM (inactive) |
| COc1ccc(-c2ccc3c(N4CCOC[C@@H]4C)nc(N4CCOC[C@@H]4C)nc3n2)cc1CO [AZD-8055] | > 30 µM (inactive) |

Each compound was assayed against Rho-associated protein kinase 1 (Homo sapiens, UniProt Q13464).

| Structure (SMILES) | Kd |
| --- | --- |
| CNS(=O)(=O)Nc1nccc(Cc2c(C)c3ccc(Oc4ncccn4)cc3oc2=O)c1F [AVUTOMETINIB] | > 30 µM (inactive) |
| Cc1cc([C@@H](C)Nc2ccccc2C(=O)O)c2nc(N3CCOCC3)cc(=O)n2c1 [AZD-6482] | > 30 µM (inactive) |
| COc1ccc(-c2ccc3c(N4CCOC[C@@H]4C)nc(N4CCOC[C@@H]4C)nc3n2)cc1CO [AZD-8055] | > 30 µM (inactive) |

Each compound was assayed against Mitogen-activated protein kinase kinase kinase kinase 5 (Homo sapiens, UniProt Q9Y4K4).
Mitogen-activated protein kinase kinase kinase kinase 5, sequence (Q9Y4K4 whole entry): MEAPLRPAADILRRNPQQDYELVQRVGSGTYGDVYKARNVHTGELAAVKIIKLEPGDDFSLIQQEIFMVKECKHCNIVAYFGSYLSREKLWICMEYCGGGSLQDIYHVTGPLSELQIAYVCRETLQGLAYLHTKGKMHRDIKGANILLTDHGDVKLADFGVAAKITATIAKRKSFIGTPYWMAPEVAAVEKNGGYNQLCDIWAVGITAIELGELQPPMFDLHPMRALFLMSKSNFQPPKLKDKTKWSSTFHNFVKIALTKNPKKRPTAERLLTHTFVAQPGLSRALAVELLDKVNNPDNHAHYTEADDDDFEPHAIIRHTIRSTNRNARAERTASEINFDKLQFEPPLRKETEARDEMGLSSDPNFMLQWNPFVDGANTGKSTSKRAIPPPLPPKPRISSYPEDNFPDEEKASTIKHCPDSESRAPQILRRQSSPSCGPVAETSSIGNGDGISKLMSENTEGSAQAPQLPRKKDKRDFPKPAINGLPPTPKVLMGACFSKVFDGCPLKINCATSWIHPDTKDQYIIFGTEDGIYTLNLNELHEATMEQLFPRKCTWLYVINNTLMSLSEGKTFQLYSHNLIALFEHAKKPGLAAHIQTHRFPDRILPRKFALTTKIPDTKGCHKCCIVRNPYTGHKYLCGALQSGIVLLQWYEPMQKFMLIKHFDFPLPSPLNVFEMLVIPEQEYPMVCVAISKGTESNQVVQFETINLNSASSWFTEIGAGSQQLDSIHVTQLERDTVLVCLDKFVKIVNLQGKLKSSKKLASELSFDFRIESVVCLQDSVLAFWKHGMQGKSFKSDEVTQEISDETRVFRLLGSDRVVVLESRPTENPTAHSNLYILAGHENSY

| Structure (SMILES) | Kd |
| --- | --- |
| CNS(=O)(=O)Nc1nccc(Cc2c(C)c3ccc(Oc4ncccn4)cc3oc2=O)c1F [AVUTOMETINIB] | > 30 µM (inactive) |
| Cc1cc([C@@H](C)Nc2ccccc2C(=O)O)c2nc(N3CCOCC3)cc(=O)n2c1 [AZD-6482] | > 30 µM (inactive) |
| COc1ccc(-c2ccc3c(N4CCOC[C@@H]4C)nc(N4CCOC[C@@H]4C)nc3n2)cc1CO [AZD-8055] | > 30 µM (inactive) |

Each compound was assayed against T5, Interleukin-1 receptor-associated kinase 3 (Homo sapiens, UniProt Q9Y616).
T5 sequence (Q9Y616 whole entry): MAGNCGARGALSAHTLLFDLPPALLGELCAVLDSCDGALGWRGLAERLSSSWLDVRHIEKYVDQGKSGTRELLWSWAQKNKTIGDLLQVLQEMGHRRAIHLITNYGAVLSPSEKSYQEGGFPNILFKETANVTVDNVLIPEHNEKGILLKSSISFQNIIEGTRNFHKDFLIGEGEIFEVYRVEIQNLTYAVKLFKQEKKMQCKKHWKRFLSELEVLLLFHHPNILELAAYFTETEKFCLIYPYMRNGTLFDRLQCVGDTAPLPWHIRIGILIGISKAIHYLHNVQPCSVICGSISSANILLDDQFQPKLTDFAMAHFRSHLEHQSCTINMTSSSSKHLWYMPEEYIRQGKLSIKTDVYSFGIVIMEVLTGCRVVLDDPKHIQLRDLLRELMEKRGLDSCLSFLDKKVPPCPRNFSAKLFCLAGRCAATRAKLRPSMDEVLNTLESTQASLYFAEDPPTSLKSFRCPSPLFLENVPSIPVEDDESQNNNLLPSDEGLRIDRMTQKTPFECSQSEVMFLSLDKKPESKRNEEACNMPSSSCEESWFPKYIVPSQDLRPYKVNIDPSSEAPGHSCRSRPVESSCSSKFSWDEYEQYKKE

| Structure (SMILES) | Kd |
| --- | --- |
| CNS(=O)(=O)Nc1nccc(Cc2c(C)c3ccc(Oc4ncccn4)cc3oc2=O)c1F [AVUTOMETINIB] | > 30 µM (inactive) |
| Cc1cc([C@@H](C)Nc2ccccc2C(=O)O)c2nc(N3CCOCC3)cc(=O)n2c1 [AZD-6482] | > 30 µM (inactive) |
| COc1ccc(-c2ccc3c(N4CCOC[C@@H]4C)nc(N4CCOC[C@@H]4C)nc3n2)cc1CO [AZD-8055] | > 30 µM (inactive) |
